Assay results published in patent publication US20060069132A1, “Azolecarboxamide herbicides” (priority 2004, published 2006).

How the values were obtained:
wild oat = test: Test B postemergence herbicide test; format: in vivo, Avena fatua; conditions: scale 0 (no effect) to 100 (complete control)
Outline: (§1)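 Greenhouse test; postemergence application to plants at 1–4 leaves (2–18 cm); paddy species at 2 leaves; evaluated visually vs controls at 13–15 days; scale 0–100 (100 = complete control).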

barnyardgrass [1] = test: Test C flooded paddy test; format: in vivo, Echinochloa crus-galli; conditions: for Plant response rating, Barnyardgrass: 500 g ai/ha, visual rating after 12 to 14 days
Outline: (§2)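 Plants were grown to the 1- to 4-leaf stage (2–18 cm) and then treated postemergence, or grown to the 2-leaf stage for the flooded paddy test. They were held in a greenhouse for 12 to 14 days and then scored by eye against controls, where 0 is no effect and 100 is complete control.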

pigweed = test: Test B pre-/postemergence herbicide test; format: in vivo, Amaranthus retroflexus; conditions: for Plant response rating (0 to 100 scale), Pigweed: 0 is no effect, 100 is complete control, preemergence; for Pigweed plant response rating: scale 0 (no effect) to 100 (complete control)
Outline: (§3)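 Greenhouse pot assay with simultaneous preemergence (treated seed) and postemergence (2–18 cm seedlings) applications of surfactant-containing, non-phytotoxic solvent formulations. Response scored visually 13–15 days later on a 0–100 scale, 100 meaning complete control.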

corn = test: Test B pre-/postemergence herbicide test; format: in vivo, Zea mays; conditions: for Plant response rating (0 to 100 scale), Corn: 0 is no effect, preemergence; for Corn plant response rating: postemergence
Outline: as §3

[2] = test system: smallflower umbrella sedge; test: Test C flooded paddy test; format: in vivo, Cyperus difformis
Surinam grass = test: Test B pre-/postemergence herbicide test; format: in vivo, Urochloa decumbens; conditions: for Plant response rating (0 to 100 scale), Surinam Grass: 0 is no effect, 100 is complete control, preemergence; for Surinam Grass plant response rating: scale 0 (no effect) to 100 (complete control)
Outline: as §3

ducksalad [3] = test: Test B flooded paddy test; format: in vivo, Heteranthera limosa; conditions: 1000 g ai/ha, scale 0 to 100 (0 no effect, 100 complete control)
Outline: (§4)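 Postemergence plants were sprayed with formulated test chemicals at 2 to 18 cm height (1- to 4-leaf stage); paddy species were grown to the 2-leaf stage. After 13 to 15 days in a greenhouse, injury was rated visually against untreated controls on a 0–100 scale (0 = no effect, 100 = complete control).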

morningglory = test: Test B pre-/postemergence herbicide test; format: in vivo, Ipomoea coccinea; conditions: for Plant response rating (0 to 100 scale), Morningglory: 0 is no effect, 100 is complete control, preemergence; for Morningglory plant response rating: scale 0 (no effect) to 100 (complete control)
Outline: (§5)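 Seeds were planted and treated preemergence with compounds formulated in a non-phytotoxic solvent mixture containing surfactant, while plants at the 1- to 4-leaf stage (2 to 18 cm) received postemergence sprays. Flooded paddy plants were grown to the 2-leaf stage. After 13 to 15 days in a greenhouse, injury was visually rated 0–100 against untreated controls.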

rice [4] = test: Test C flooded paddy test; format: in vivo, Oryza sativa; conditions: for Plant response rating, Rice: 500 g ai/ha, visual rating after 12 to 14 days
Outline: as §2

lambsquarters = test: Test B pre-/postemergence herbicide test; format: in vivo, Chenopodium album; conditions: for Lambsquarters plant response rating: scale 0 (no effect) to 100 (complete control)
Outline: as §3

blackgrass = test: Test B postemergence herbicide test; format: in vivo, Alopecurus myosuroides; conditions: postemergence
Outline: as §4

barnyardgrass [5] = test: Test B pre-/postemergence herbicide test; format: in vivo, Echinochloa crus-galli; conditions: for Plant response rating (0 to 100 scale), Barnyardgrass: 0 is no effect, preemergence; for Barnyardgrass plant response rating: postemergence
Outline: as §5

cocklebur = test: Test B pre-/postemergence herbicide test; format: in vivo, Xanthium strumarium; conditions: for Plant response rating (0 to 100 scale), Cocklebur: 0 is no effect, preemergence; for Cocklebur plant response rating: postemergence
Outline: as §5

large crabgrass = test: Test B pre-/postemergence herbicide test; format: in vivo, Digitaria sanguinalis; conditions: for Plant response rating (0 to 100 scale), Crabgrass, Large: 0 is no effect, preemergence; for Crabgrass, Large plant response rating: postemergence
Outline: as §3

[6] = test system: small flower umbrella sedge; test: Test B flooded paddy test; format: in vivo, Cyperus difformis; conditions: 1000 g ai/ha, scale 0 to 100 (0 no effect, 100 complete control)
Outline: as §4

barnyardgrass [7] = test: Test B flooded paddy test; format: in vivo, Echinochloa crus-galli; conditions: 1000 g ai/ha, scale 0 to 100 (0 no effect, 100 complete control)
Outline: as §4

giant foxtail = test: Test B pre-/postemergence herbicide test; format: in vivo, Setaria faberi; conditions: for Plant response rating (0 to 100 scale), Foxtail, Giant: 0 is no effect, preemergence; for Foxtail, Giant plant response rating: postemergence
Outline: as §3

rice [8] = test: Test B flooded paddy test; format: in vivo, Oryza sativa; conditions: 1000 g ai/ha, scale 0 to 100 (0 no effect, 100 complete control)
Outline: as §1

velvetleaf = test: Test B pre-/postemergence herbicide test; format: in vivo, Abutilon theophrasti; conditions: for Plant response rating (0 to 100 scale), Velvetleaf: 0 is no effect, 100 is complete control, preemergence; for Velvetleaf plant response rating: scale 0 (no effect) to 100 (complete control)
Outline: as §3

ducksalad [9] = test: Test C flooded paddy test; format: in vivo, Heteranthera limosa
wheat = test: Test B postemergence herbicide test; format: in vivo, Triticum aestivum; design: key to Wheat plant response rating: 0 = no effect, 100 = complete control
Outline: as §1

[10] = 125 g ai/ha, visual rating, postemergence
[11] = 62 g ai/ha, scale 0 to 100 (0 no effect, 100 complete control)
[12] = 125 g ai/ha, scale 0 to 100 (0 no effect, 100 complete control)
[13] = 250 g ai/ha, scale of 0 to 100, 0 is no effect, 100 is complete control
[14] = scale 0 to 100 (0 no effect, 100 complete control)
[15] = 125 g ai/ha, 100 is complete control
[16] = 125 g ai/ha, visual rating, scale 0 (no effect) to 100 (complete control)
[17] = 500 g ai/ha, scale 0 to 100, 0 is no effect, 100 is complete control
[18] = 125 g ai/ha, visual rating, scale 0 (no effect) to 100 (complete control), postemergence
[19] = 500 g ai/ha, scale 0 to 100, 0 no effect, 100 complete control, preemergence
[20] = Postemergence, 500 g ai/ha, scale 0 (no effect) to 100 (complete control)
[21] = 500 g ai/ha, visual rating after 12 to 14 days, scale 0 to 100 (0 no effect, 100 complete control)

Compound: CCc1nn(C(C)(C)CC)nc1C(=O)Nc1cc(C(=O)N(C)C)ccc1F [Compound 368]
- Oat, Wild plant response rating (wild oat; [10]): 0
- Oat, Wild plant response rating (wild oat; Postemergence, 500 g ai/ha): 0
- Barnyardgrass plant response rating (barnyardgrass [1]; [11]): 0
- Barnyardgrass plant response rating (barnyardgrass [1]; [12]): 0
- Barnyardgrass plant response rating (barnyardgrass [1]; [13]): 0
- Plant response rating, Barnyardgrass (barnyardgrass [1]; [14]): 30
- Plant response rating (0 to 100 scale), Pigweed (pigweed; 125 g ai/ha): 30
- Pigweed plant response rating (pigweed; [10]): 10
- Pigweed plant response rating (pigweed; Postemergence, 500 g ai/ha): 50
- Plant response rating (0 to 100 scale), Corn (corn; [15]): 0
- Corn plant response rating (corn; [16]): 0
- Corn plant response rating (corn; [17]): 10
- Sedge, Umbrella plant response rating ([2]; 62 g ai/ha, scale 0 to 100): 20
- Sedge, Umbrella plant response rating [2, 12]: 75
- Sedge, Umbrella plant response rating [2, 13]: 75
- Plant response rating (0 to 100 scale), Surinam Grass (Surinam grass; 125 g ai/ha): 10
- Surinam Grass plant response rating (Surinam grass; [10]): 0
- Surinam Grass plant response rating (Surinam grass; Postemergence, 500 g ai/ha): 0
- Ducksalad plant response rating (ducksalad [3]): 90
- Plant response rating (0 to 100 scale), Morningglory (morningglory; 125 g ai/ha): 0
- Morningglory plant response rating (morningglory; [10]): 0
- Morningglory plant response rating (morningglory; Postemergence, 500 g ai/ha): 30
- Rice plant response rating (rice [4]; 62 g ai/ha, scale 0 to 100): 20
- Rice plant response rating (rice [4]; [12]): 45
- Rice plant response rating (rice [4]; [13]): 60
- Plant response rating, Rice (rice [4]; [14]): 70
- Lambsquarters plant response rating (lambsquarters; [10]): 50
- Lambsquarters plant response rating (lambsquarters; Postemergence, 500 g ai/ha): 60
- Blackgrass plant response rating (blackgrass; [16]): 0
- Blackgrass plant response rating (blackgrass; [17]): 10
- Plant response rating (0 to 100 scale), Barnyardgrass (barnyardgrass [5]; [15]): 40
- Barnyardgrass plant response rating (barnyardgrass [5]; [16]): 0
- Barnyardgrass plant response rating (barnyardgrass [5]; [17]): 10
- Plant response rating (0 to 100 scale), Cocklebur (cocklebur; [15]): 0
- Cocklebur plant response rating (cocklebur; [16]): 20
- Cocklebur plant response rating (cocklebur; [17]): 30
- Plant response rating (0 to 100 scale), Crabgrass, Large (large crabgrass; [15]): 10
- Crabgrass, Large plant response rating (large crabgrass; [16]): 10
- Crabgrass, Large plant response rating (large crabgrass; [17]): 10
- Sedge, Umbrella plant response rating [6]: 80
- Barnyardgrass plant response rating (barnyardgrass [7]): 60
- Plant response rating (0 to 100 scale), Foxtail, Giant (giant foxtail; [15]): 20
- Foxtail, Giant plant response rating (giant foxtail; [16]): 0
- Foxtail, Giant plant response rating (giant foxtail; [17]): 10
- Rice plant response rating (rice [8]): 50
- Plant response rating (0 to 100 scale), Velvetleaf (velvetleaf; 125 g ai/ha): 0
- Velvetleaf plant response rating (velvetleaf; [10]): 10
- Velvetleaf plant response rating (velvetleaf; Postemergence, 500 g ai/ha): 20
- Ducksalad plant response rating (ducksalad [9]; 62 g ai/ha, scale 0 to 100): 0
- Ducksalad plant response rating (ducksalad [9]; [12]): 80
- Ducksalad plant response rating (ducksalad [9]; [13]): 90
- Wheat plant response rating (wheat; [18]): 0
- Wheat plant response rating (wheat; [19]): 10
- Wheat plant response rating (wheat; [20]): 0

Compound: C=CCNC(=O)c1ccc(F)c(NC(=O)c2nn(C(C)(C)C)nc2CC)c1 [Compound 383]
- Oat, Wild plant response rating (wild oat; [10]): 0
- Oat, Wild plant response rating (wild oat; Postemergence, 500 g ai/ha): 20
- Barnyardgrass plant response rating (barnyardgrass [1]; [11]): 0
- Barnyardgrass plant response rating (barnyardgrass [1]; [12]): 0
- Barnyardgrass plant response rating (barnyardgrass [1]; [13]): 15
- Plant response rating, Barnyardgrass (barnyardgrass [1]; [14]): 40
- Plant response rating (0 to 100 scale), Pigweed (pigweed; 125 g ai/ha): 0
- Pigweed plant response rating (pigweed; [10]): 20
- Pigweed plant response rating (pigweed; Postemergence, 500 g ai/ha): 30
- Plant response rating (0 to 100 scale), Corn (corn; [15]): 0
- Corn plant response rating (corn; [16]): 0
- Corn plant response rating (corn; [17]): 0
- Sedge, Umbrella plant response rating ([2]; 62 g ai/ha, scale 0 to 100): 0
- Sedge, Umbrella plant response rating [2, 12]: 45
- Sedge, Umbrella plant response rating [2, 13]: 65
- Plant response rating, Sedge, Umbrella [2, 21]: 90
- Plant response rating (0 to 100 scale), Surinam Grass (Surinam grass; 125 g ai/ha): 10
- Surinam Grass plant response rating (Surinam grass; [10]): 10
- Surinam Grass plant response rating (Surinam grass; Postemergence, 500 g ai/ha): 20
- Ducksalad plant response rating (ducksalad [3]): 70
- Plant response rating (0 to 100 scale), Morningglory (morningglory; 125 g ai/ha): 0
- Morningglory plant response rating (morningglory; [10]): 10
- Morningglory plant response rating (morningglory; Postemergence, 500 g ai/ha): 10
- Rice plant response rating (rice [4]; 62 g ai/ha, scale 0 to 100): 0
- Rice plant response rating (rice [4]; [12]): 5
- Rice plant response rating (rice [4]; [13]): 35
- Plant response rating, Rice (rice [4]; [14]): 50
- Plant response rating (0 to 100 scale), Lambsquarters (lambsquarters; 125 g ai/ha, 0 is no effect, 100 is complete control, preemergence): 40
- Lambsquarters plant response rating (lambsquarters; [10]): 20
- Lambsquarters plant response rating (lambsquarters; Postemergence, 500 g ai/ha): 30
- Blackgrass plant response rating (blackgrass; [16]): 0
- Blackgrass plant response rating (blackgrass; [17]): 20
- Plant response rating (0 to 100 scale), Barnyardgrass (barnyardgrass [5]; [15]): 10
- Barnyardgrass plant response rating (barnyardgrass [5]; [16]): 0
- Barnyardgrass plant response rating (barnyardgrass [5]; [17]): 0
- Plant response rating (0 to 100 scale), Cocklebur (cocklebur; [15]): 0
- Cocklebur plant response rating (cocklebur; [16]): 0
- Cocklebur plant response rating (cocklebur; [17]): 10
- Plant response rating (0 to 100 scale), Crabgrass, Large (large crabgrass; [15]): 50
- Crabgrass, Large plant response rating (large crabgrass; [16]): 0
- Crabgrass, Large plant response rating (large crabgrass; [17]): 10
- Sedge, Umbrella plant response rating [6]: 80
- Barnyardgrass plant response rating (barnyardgrass [7]): 30
- Plant response rating (0 to 100 scale), Foxtail, Giant (giant foxtail; [15]): 10
- Foxtail, Giant plant response rating (giant foxtail; [16]): 0
- Foxtail, Giant plant response rating (giant foxtail; [17]): 0
- Rice plant response rating (rice [8]): 60
- Plant response rating (0 to 100 scale), Velvetleaf (velvetleaf; 125 g ai/ha): 10
- Velvetleaf plant response rating (velvetleaf; [10]): 10
- Velvetleaf plant response rating (velvetleaf; Postemergence, 500 g ai/ha): 40
- Ducksalad plant response rating (ducksalad [9]; 62 g ai/ha, scale 0 to 100): 0
- Ducksalad plant response rating (ducksalad [9]; [12]): 45
- Ducksalad plant response rating (ducksalad [9]; [13]): 45
- Plant response rating, Ducksalad (ducksalad [9]; [21]): 95
- Wheat plant response rating (wheat; [18]): 0
- Wheat plant response rating (wheat; [19]): 10
- Wheat plant response rating (wheat; [20]): 0
